Results reported in patent US10966426B2, “Herbicidal compositions comprising phenylpyrimidines” (BASF SE, priority 2016, dated 2021).
Where two headings read alike, the source gives them in different places.

Tests used:
Format in all cases: in vivo
[1] = test system: Poa annua; assay: greenhouse post-emergence treatment, POAAN; settings: Poa annua
How it was run: (§1)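 Plants were grown in loamy sand with about 3.0% humus to 3–15 cm height, then sprayed with actives formulated as 10% by weight emulsion concentrates in water. Held at 10-25° C. or 20-35° C. by species for 2 to 4 weeks; damage scored 0 (none) to 100 (complete destruction).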

[2] = test system: Alopecurus myosuroides; assay: greenhouse post-emergence treatment, ALOMY; settings: Alopecurus myosuroides, 480 h, 20 DAT, ALOMY
How it was run: (§2)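 Plants were grown in pots of loamy sand with approximately 3.0% humus, either sown directly or transplanted as seedlings a few days before treatment, and sprayed with water-based treatments. They were kept at 10-25° C. or 20-35° C. depending on species and rated visually after 2 to 4 weeks on a 0–100 scale (100 = no emergence or complete destruction of above-ground parts).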

[3] = test system: Avena fatua; assay: greenhouse post-emergence treatment, AVEFA; settings: Avena fatua; for pest or weed control at 125 g/ha: read-out: % activity
How it was run: as §2

[4] = test system: Matricaria chamomilla; assay: greenhouse post-emergence treatment, MATCH; settings: MATCH
How it was run: (§3)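 Foliar application to greenhouse-grown plants 3–15 cm tall in humus-containing loamy sand; response assessed on a 0–100 scale after 2–4 weeks, with Colby's E=X+Y−(X·Y/100) as the additive expectation.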

[5] = test system: Lolium multiflorum; assay: greenhouse post-emergence treatment, LOLMU; settings: Lolium multiflorum, LOLMU
How it was run: as §2

[6] = test system: Polygonum convolvulus; assay: greenhouse post-emergence treatment, POLCO; settings: Fallopia convolvulus
How it was run: as §3

[7] = test system: Setaria viridis; assay: greenhouse post-emergence treatment, SETVI; settings: Setaria viridis
How it was run: as §2

[8] = test system: Digitaria sanguinalis; assay: greenhouse post-emergence treatment, DIGSA; settings: Digitaria sanguinalis, DIGSA
How it was run: as §2

[9] = test system: Bromus sterilis; assay: greenhouse post-emergence treatment, BROST; settings: Bromus sterilis
How it was run: as §2

[10] = test system: Brachiaria decumbens; assay: greenhouse post-emergence treatment, BRADC; settings: for % activity: cinmethylin solo (EC 750 g/l)
How it was run: as §1

[11] = test system: Ambrosia elatior; assay: greenhouse post-emergence treatment, AMBEL; settings: AMBEL
How it was run: as §1

[12] = test system: Echinocloa crus-galli; assay: greenhouse post-emergence treatment, ECHCG; settings: ECHCG, chlorotoluron solo 500 gai/ha, 20 DAT
How it was run: as §3

[13] = 480 h, solo, WG 70%, 17.5 gai/ha, 20 DAT
[14] = 480 h, solo, WG 70%, 35 gai/ha, 20 DAT
[15] = cinmethylin solo (EC 750 g/l), 125 gai/ha, 21 DAT
[16] = 504 h, 21 DAT, solo cinmethylin (EC 750 g/l) 62.5 gai/ha, read-out: % activity
[17] = 504 h, 21 DAT, solo cinmethylin (EC 750 g/l) 125 gai/ha, read-out: % activity
[18] = Urochloa decumbens, 504 h, read-out: % activity

`CSc1nnc(C(C)(C)C)c(=O)n1N` [metribuzin] was tested, and the inhibition at 17.5 g/ha ([1]; 480 h, 20 DAT, POAAN, metribuzin WG 70% solo 17.5 gai/ha) was 60%, the inhibition at 35 g/ha ([1]; 480 h, 20 DAT, POAAN, metribuzin WG 70% solo 35 gai/ha) was 70% and the pest or weed control at 17.5 g/ha ([1]; 480 h, solo, WG 70%, POAAN, 17.5 gai/ha, 20 DAT) was 60%. It also gave an inhibition at 17.5 g/ha ([2]; metribuzin WG 70% solo 17.5 gai/ha) of 0%, an inhibition at 35 g/ha ([2]; metribuzin WG 70% solo 35 gai/ha, read-out: % activity) of 10% and a pest or weed control at 17.5 g/ha ([2]; solo, WG 70%, 17.5 gai/ha) of 0%. For the same compound, the pest or weed control at 35 g/ha ([2]; solo, WG 70%, 35 gai/ha) was 10%, the inhibition at 17.5 g/ha ([3]; 480 h, 20 DAT, AVEFA, metribuzin WG 70% solo 17.5 gai/ha) was 5% and the inhibition at 35 g/ha ([3]; 480 h, 20 DAT, AVEFA, metribuzin WG 70% solo 35 gai/ha) was 10%. The inhibition at 70 g/ha ([3]; 480 h, 20 DAT, AVEFA, metribuzin WG 70% solo 70 gai/ha) was 40%, the pest or weed control at 17.5 g/ha ([3]; 480 h, solo, WG 70%, AVEFA, 17.5 gai/ha, 20 DAT) was 5% and the pest or weed control at 35 g/ha ([3]; 480 h, solo, WG 70%, AVEFA, 35 gai/ha, 20 DAT) was 10%. It also gave a pest or weed control at 70 g/ha ([3]; 480 h, solo, WG 70%, AVEFA, 70 gai/ha, 20 DAT) of 40%, an inhibition at 17.5 g/ha ([4]; Matricaria chamomilla, 480 h, 20 DAT, metribuzin WG 70% solo 17.5 gai/ha) of 0% and an inhibition at 35 g/ha ([4]; Matricaria chamomilla, 480 h, 20 DAT, metribuzin WG 70% solo 35 gai/ha) of 25%. It also gave a pest or weed control at 17.5 g/ha ([4]; Matricaria chamomilla, 480 h, solo, WG 70%, 17.5 gai/ha, 20 DAT) of 0%, a pest or weed control at 35 g/ha ([4]; Matricaria chamomilla, 480 h, solo, WG 70%, 35 gai/ha, 20 DAT) of 25% and a pest or weed control at 17.5 g/ha [5, 13] of 20%. For the same compound, the pest or weed control at 35 g/ha [5, 14] was 60%, the pest or weed control at 70 g/ha ([5]; 480 h, solo, WG 70%, 70 gai/ha, 20 DAT) was 65% and the inhibition at 17.5 g/ha ([6]; 480 h, 20 DAT, POLCO, metribuzin WG 70% solo 17.5 gai/ha) was 0%. For the same compound, the inhibition at 35 g/ha ([6]; 480 h, 20 DAT, POLCO, metribuzin WG 70% solo 35 gai/ha) was 0%, the inhibition at 70 g/ha ([6]; 480 h, 20 DAT, POLCO, metribuzin WG 70% solo 70 gai/ha) was 60% and the inhibition at 140 g/ha ([6]; 480 h, 20 DAT, POLCO, metribuzin WG 70% solo 140 gai/ha) was 70%. It also gave a pest or weed control at 17.5 g/ha ([7]; 480 h, solo, WG 70%, SETVI, 17.5 gai/ha, 20 DAT) of 30%, an inhibition at 17.5 g/ha ([8]; 480 h, 20 DAT, metribuzin WG 70% solo 17.5 gai/ha) of 0% and an inhibition at 35 g/ha ([8]; 480 h, 20 DAT, metribuzin WG 70% solo 35 gai/ha) of 35%. For the same compound, the pest or weed control at 17.5 g/ha [8, 13] was 0%, the pest or weed control at 35 g/ha [8, 14] was 35% and the pest or weed control at 140 g/ha ([8]; 480 h, solo, WG 70%, 140 gai/ha, 20 DAT) was 85%. The pest or weed control at 17.5 g/ha ([9]; 480 h, solo, WG 70%, BROST, 17.5 gai/ha, 20 DAT) was 25%, the pest or weed control at 35 g/ha ([9]; 480 h, solo, WG 70%, BROST, 35 gai/ha, 20 DAT) was 55% and the inhibition at 17.5 g/ha ([10]; Urochloa decumbens, 480 h, 20 DAT, BRADC, metribuzin WG 70% solo 17.5 gai/ha) was 50%. It also gave an inhibition at 17.5 g/ha ([11]; Ambrosia artemisiifolia, 480 h, 20 DAT, metribuzin WG 70% solo 17.5 gai/ha) of 0%, an inhibition at 35 g/ha ([11]; Ambrosia artemisiifolia, 480 h, 20 DAT, metribuzin WG 70% solo 35 gai/ha) of 0% and an inhibition at 70 g/ha ([11]; Ambrosia artemisiifolia, 480 h, 20 DAT, metribuzin WG 70% solo 70 gai/ha) of 0%. For the same compound, the inhibition at 140 g/ha ([11]; Ambrosia artemisiifolia, 480 h, 20 DAT, metribuzin WG 70% solo 140 gai/ha) was 70%, the “% activity” value ([11]; solo, WG 70%, 17.5 gai/ha, 20 DAT) was 0% and the “% activity” value ([11]; solo, WG 70%, 35 gai/ha, 20 DAT) was 0%. The “% activity” value ([11]; solo, WG 70%, 70 gai/ha, 20 DAT) was 0%.

For `Cc1ccccc1CO[C@@H]1C[C@@]2(C(C)C)CC[C@]1(C)O2` (racemic) [cinmethylin], the pest or weed control at 62.5 g/ha ([1]; 504 h, read-out: % activity) was 70%, the pest or weed control at 125 g/ha ([3]; 504 h) was 10% and the pest or weed control at 125 g/ha ([4]; Matricaria chamomilla, 504 h, 21 DAT, solo cinmethylin (EC 750 g/l) 125 gai/ha) was 0%. The “% activity” value [4, 15] was 0%, the pest or weed control at 62.5 g/ha [5, 16] was 0% and the pest or weed control at 125 g/ha [5, 17] was 30%. The pest or weed control at 62.5 g/ha ([6]; 504 h, read-out: % activity) was 0%, the pest or weed control at 125 g/ha ([6]; 504 h, read-out: % activity) was 0% and the pest or weed control at 250 g/ha ([6]; 504 h, read-out: % activity) was 0%. It also gave a pest or weed control at 500 g/ha ([6]; 504 h, read-out: % activity) of 0%, a pest or weed control at 125 g/ha ([7]; 504 h, SETVI, 21 DAT, solo cinmethylin (EC 750 g/l) 125 gai/ha) of 55% and a pest or weed control at 62.5 g/ha ([7]; 504 h, read-out: % activity) of 20%. For the same compound, the pest or weed control at 500 g/ha ([7]; 504 h, read-out: % activity) was 85%, the pest or weed control at 62.5 g/ha [8, 16] was 0% and the pest or weed control at 125 g/ha [8, 17] was 15%. It also gave a pest or weed control at 250 g/ha ([8]; 504 h, 21 DAT, solo cinmethylin (EC 750 g/l) 250 gai/ha, read-out: % activity) of 20%, a pest or weed control at 62.5 g/ha ([9]; 504 h, read-out: % activity) of 10% and a pest or weed control at 250 g/ha ([9]; 504 h, read-out: % activity) of 25%. For the same compound, the pest or weed control at 125 g/ha ([10]; Urochloa decumbens, 504 h, BRADC, 21 DAT, solo cinmethylin (EC 750 g/l) 125 gai/ha, read-out: % activity) was 0%, the pest or weed control at 500 g/ha ([10]; Urochloa decumbens, 504 h, BRADC, 21 DAT, solo cinmethylin (EC 750 g/l) 500 gai/ha) was 20% and the pest or weed control at 62.5 g/ha [10, 18] was 0%. For the same compound, the pest or weed control at 250 g/ha [10, 18] was 10%, the “% activity” value ([10]; 125 gai/ha, 21 DAT, BRADC) was 0% and the “% activity” value ([10]; 500 gai/ha, 21 DAT, BRADC) was 20%. For the same compound, the “% activity” value ([11]; cinmethylin solo (EC 750 g/l), 62.5 gai/ha, 21 DAT) was 0% and the “% activity” value [11, 15] was 0%.

For `Cc1ccc(NC(=O)N(C)C)cc1Cl` [chlorotoluron], the pest or weed control at 125 g/ha ([2]; chlorotoluron solo 125 gai/ha, read-out: % activity) was 30%, the pest or weed control at 250 g/ha ([2]; chlorotoluron solo 250 gai/ha, read-out: % activity) was 40% and the pest or weed control at 500 g/ha ([2]; chlorotoluron solo 500 gai/ha) was 65%. It also gave a pest or weed control at 125 g/ha ([3]; 480 h, AVEFA, chlorotoluron solo 125 gai/ha, 20 DAT) of 0%, a pest or weed control at 250 g/ha ([3]; 480 h, AVEFA, chlorotoluron solo 250 gai/ha, 20 DAT) of 40% and a pest or weed control at 500 g/ha ([3]; 480 h, AVEFA, chlorotoluron solo 500 gai/ha, 20 DAT) of 70%. For the same compound, the pest or weed control at 125 g/ha ([4]; Matricaria chamomilla, 480 h, chlorotoluron solo 125 gai/ha, 20 DAT) was 50%, the pest or weed control at 500 g/ha ([5]; 480 h, chlorotoluron solo 500 gai/ha, 20 DAT) was 80% and the “% activity” value [12] was 65%. The pest or weed control at 62.5 g/ha ([9]; 480 h, BROST, chlorotoluron solo 62.5 gai/ha, 20 DAT, read-out: % activity) was 0% and the pest or weed control at 125 g/ha ([9]; 480 h, BROST, chlorotoluron solo 125 gai/ha, 20 DAT, read-out: % activity) was 0%.
